PMC4289911, “[^68Ga]FSC-(RGD)3 a trimeric RGD peptide for imaging αvβ3 integrin expression based on a novel siderophore derived chelating scaffold—synthesis and evaluation” (Nuclear Medicine and Biology, 2015)
Where two headings read alike, the source gives them in different places.

Key:
[1] = target: T1, αvβ3 integrin (Homo sapiens, UniProt P05106+P06756); test: Binding affinity for immobilized αvβ3 integrin, displacement of [125I]c(RGDyV); conditions: isolated αvβ3 integrin coated on 96-well plates, radioligand [125I]c(RGDyV), 0.001 to 100 nM peptide, three independent measurements
T1 construct: purchased Millipore-Chemicon, Temecula, CA, USA
T1 sequence (P06756 31-889 limits assumed): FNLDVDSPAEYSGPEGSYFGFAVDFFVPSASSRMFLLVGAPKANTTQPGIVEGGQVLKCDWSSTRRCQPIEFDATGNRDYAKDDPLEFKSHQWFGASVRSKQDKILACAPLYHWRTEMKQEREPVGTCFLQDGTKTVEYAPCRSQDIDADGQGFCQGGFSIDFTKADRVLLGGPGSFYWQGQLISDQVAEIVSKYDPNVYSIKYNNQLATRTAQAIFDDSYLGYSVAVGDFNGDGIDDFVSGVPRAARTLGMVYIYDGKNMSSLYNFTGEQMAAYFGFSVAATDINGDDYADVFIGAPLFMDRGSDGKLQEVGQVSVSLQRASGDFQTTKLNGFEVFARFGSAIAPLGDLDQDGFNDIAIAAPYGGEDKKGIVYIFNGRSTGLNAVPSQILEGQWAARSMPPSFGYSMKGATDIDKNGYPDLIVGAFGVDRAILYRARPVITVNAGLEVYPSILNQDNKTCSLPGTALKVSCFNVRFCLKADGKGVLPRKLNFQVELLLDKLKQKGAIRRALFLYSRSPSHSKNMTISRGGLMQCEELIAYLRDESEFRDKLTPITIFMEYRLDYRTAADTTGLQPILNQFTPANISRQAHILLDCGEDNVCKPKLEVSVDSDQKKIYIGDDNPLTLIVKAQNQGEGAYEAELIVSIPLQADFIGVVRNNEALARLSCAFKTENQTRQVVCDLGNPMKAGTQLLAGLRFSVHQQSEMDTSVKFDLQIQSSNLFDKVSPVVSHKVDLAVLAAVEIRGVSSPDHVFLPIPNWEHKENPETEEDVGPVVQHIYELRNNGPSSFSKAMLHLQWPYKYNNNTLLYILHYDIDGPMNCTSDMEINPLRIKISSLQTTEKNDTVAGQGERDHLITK
T1 sequence (P06756 891-1048 partner limits assumed): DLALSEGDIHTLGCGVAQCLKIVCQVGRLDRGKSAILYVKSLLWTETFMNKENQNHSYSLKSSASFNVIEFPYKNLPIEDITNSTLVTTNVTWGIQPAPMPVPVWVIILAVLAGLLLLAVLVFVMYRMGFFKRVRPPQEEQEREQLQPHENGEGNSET
T1 sequence (P05106 27-788): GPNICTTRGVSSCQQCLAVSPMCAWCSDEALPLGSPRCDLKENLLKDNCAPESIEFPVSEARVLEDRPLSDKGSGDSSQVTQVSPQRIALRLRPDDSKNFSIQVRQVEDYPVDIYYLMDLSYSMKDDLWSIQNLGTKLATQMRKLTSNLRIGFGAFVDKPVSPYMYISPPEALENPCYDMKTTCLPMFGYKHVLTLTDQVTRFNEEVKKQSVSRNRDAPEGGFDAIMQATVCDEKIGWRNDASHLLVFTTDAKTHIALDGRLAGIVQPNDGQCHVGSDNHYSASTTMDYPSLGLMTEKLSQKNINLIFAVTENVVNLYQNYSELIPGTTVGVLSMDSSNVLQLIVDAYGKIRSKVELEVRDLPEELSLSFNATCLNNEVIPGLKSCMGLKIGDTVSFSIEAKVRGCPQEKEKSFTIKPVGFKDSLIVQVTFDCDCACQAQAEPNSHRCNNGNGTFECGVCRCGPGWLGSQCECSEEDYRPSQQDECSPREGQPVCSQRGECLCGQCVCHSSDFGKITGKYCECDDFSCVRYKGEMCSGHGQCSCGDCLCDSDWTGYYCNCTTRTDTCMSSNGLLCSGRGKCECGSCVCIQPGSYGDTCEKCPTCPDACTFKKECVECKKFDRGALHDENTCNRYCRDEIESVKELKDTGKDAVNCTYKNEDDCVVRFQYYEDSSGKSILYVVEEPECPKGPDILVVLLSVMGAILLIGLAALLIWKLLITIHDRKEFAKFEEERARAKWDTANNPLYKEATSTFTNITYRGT
Description: In vitro binding affinities of FSC-(RGD)3 and cyclo(-Arg-Gly-Asp-DTyr-Val-) (c(RGDyV)) as control were determined by using isolated αvβ3 integrin (Millipore-Chemicon, Temecula, CA, USA) and ^125I labeled c(RGDyV) as radioligand. The detailed procedure can be found in [16]. Briefly, 96-well plates (Nunc, Thermo Fisher Scientific, Vienna, Austria) were coated for 16 hours at 4 °C with the αvβ3 integrin. Subsequently, the immobilized receptors were incubated with [^125I]c(RGDyV) and increasing concentrations of the corresponding peptide ranging from 0.001 to 100 nM. The unbound fraction of radioligand was washed out, and receptor bound activity was obtained treating the wells with sodium hydroxide (NaOH) solution (2 M). IC50 values were determined by fitting the percent inhibition using OriginPro 8.5 software (Northhampton, MA, USA). Three independent measurements were made.

[2] = target: T1, αvβ3 integrin; conditions: comparison value; read-out: IC50, binding affinity for αvβ3 integrin; cited from earlier work
Source text: A high binding affinity to the isolated αvβ3 integrin for [^68Ga]FSC-(RGD)3 was found. […] A remarkable enhancement of internalized activity in comparison to [^68Ga]NODAGA-RGD or other monomeric RGD derivatives, [16] was observed. Moreover, ...

| Molecule | IC50 [1] | IC50 [2] |
| --- | --- | --- |
| C/C1=C/C(=O)N(O)CCC[C@H](NC(=O)CCC(=O)NCCCC[C@@H]2NC(=O)[C@@H](Cc3ccccc3)NC(=O)[C@H](CC(=O)O)NC(=O)CNC(=O)[C@H](CCCNC(=N)N)NC2=O)C(=O)OCC/C(C)=C\C(=O)N(O)CCC[C@H](NC(=O)CCC(=O)NCCCC[C@@H]2NC(=O)[C@@H](Cc3ccccc3)NC(=O)[C@H](CC(=O)O)NC(=O)CNC(=O)[C@H](CCCNC(=N)N)NC2=O)C(=O)OCC/C(C)=C\C(=O)N(O)CCC[C@H](NC(=O)CCC(=O)NCCCC[C@@H]2NC(=O)[C@@H](Cc3ccccc3)NC(=O)[C@H](CC(=O)O)NC(=O)CNC(=O)[C@H](CCCNC(=N)N)NC2=O)C(=O)OCC1 [FSC-(RGD)3] | 1.8 ± 0.6 nM |  |
| CC(C)[C@@H]1NC(=O)[C@@H](Cc2ccc(O)cc2)NC(=O)[C@H](CC(=O)O)NC(=O)CNC(=O)[C@H](CCCNC(=N)N)NC1=O [c(RGDyV), cyclo(-Arg-Gly-Asp-DTyr-Val-)] | 3.2 ± 1.2 nM |  |
| [^68Ga]NODAGA-RGD: established monomeric 68Ga-labeled RGD peptide |  | 4.7 nM |
